From patent EP0261362A2, “Ubidecarenone as a keloid remedy” (Eisai Co., Ltd., priority 1986, dated 1988)

What was measured:
Format in all cases: in vivo
eyelid = assay: Eyelid irritation test; conditions: Concn. 1%, solvent Squalane
Description: (§1) The safety of percutaneous administration of ubidecarenone is high, and skin irritation due to ubidecarenone is minor. For example, the results of primary skin irritation, accumulative irritation, eyelid irritation, phototoxis, sensitization, photosensitization, and patch tests are as shown in Table l.

skin [1] = assay: Accumulative skin irritation test; conditions: Concn. 1%, solvent Squalane
Description: as §1

skin [2] = assay: Phototoxis test; conditions: Concn. 1% and 10%, solvent Squalane
Description: as §1

skin [3] = assay: Sensitization test (Adjuvant & Patch method); conditions: Induction: 5% acetone
Description: as §1

skin [4] = assay: Photosensitization test (Adjuvant & Strip method); conditions: Induction: 10% acetone
Description: as §1

skin [5] = assay: Primary skin irritation test; conditions: Concn. 1%, solvent Squalane
Description: as §1

skin [6] = assay: Patch test; conditions: Concn. 1%, solvent Squalane
Description: as §1

## COC1=C(OC)C(=O)C(C/C=C(\C)CC/C=C(\C)CC/C=C(\C)CC/C=C(\C)CC/C=C(\C)CC/C=C(\C)CC/C=C(\C)CC/C=C(\C)CC/C=C(\C)CCC=C(C)C)=C(C)C1=O [ubidecarenone]
eyelid
  Eyelid irritation, conclusion: lowly irritative
Skin [1]
  Accumulative skin irritation, result: 0.3
Skin [2]
  Phototoxis, conclusion: lowly phototoxic
Skin [3]; challenge 1% in acetone
  Sensitization Challenge, result: 0/10
Skin [3]; challenge 5% and 1% in acetone
  Sensitization Challenge, conclusion: lowly sensitized
Skin [3]; challenge 5% in acetone
  Sensitization Challenge, result: 0/10
Skin [4]; challenge 0.5 in acetone
  Photosensitivization Challenge, result: 0/5
Skin [4]; challenge 1 in acetone
  Photosensitivization Challenge, result: 0/5
Skin [4]; challenge 2 in acetone
  Photosensitivization Challenge, result: 0/5
Skin [4]; challenge 5 in acetone
  Photosensitivization Challenge, result: 0/5
Skin [4]; challenge 10% in acetone
  Photosensitivization Challenge, result: 0/5
Skin [4]; challenge 10% to 0.5 in acetone
  Photosensitivization Challenge, conclusion: lowly photosensitized
Skin [5]
  Primary skin irritation, conclusion: lowly irritative
  Primary skin irritation, result: 0.1
Skin [6]
  Patch test, conclusion: lowly irritative
  Patch test, result: 0/54
